{"source": "patent US11331299B2", "about": "“Medicinal use of serrulatane diterpenes” (The University of Sydney, priority 2016, dated 2022)", "key": {"[1]": {"target": "enzymes (Bioprint panel) (Homo sapiens, UniProt O76074)", "test": "biochemical", "conditions": "PDE5 (h) (non-selective); 10 μM; read-out: % Inhibition of Control Values"}, "[2]": {"target": "enzymes (Bioprint panel) (Homo sapiens, UniProt P43403)", "sequence (P43403 whole entry)": "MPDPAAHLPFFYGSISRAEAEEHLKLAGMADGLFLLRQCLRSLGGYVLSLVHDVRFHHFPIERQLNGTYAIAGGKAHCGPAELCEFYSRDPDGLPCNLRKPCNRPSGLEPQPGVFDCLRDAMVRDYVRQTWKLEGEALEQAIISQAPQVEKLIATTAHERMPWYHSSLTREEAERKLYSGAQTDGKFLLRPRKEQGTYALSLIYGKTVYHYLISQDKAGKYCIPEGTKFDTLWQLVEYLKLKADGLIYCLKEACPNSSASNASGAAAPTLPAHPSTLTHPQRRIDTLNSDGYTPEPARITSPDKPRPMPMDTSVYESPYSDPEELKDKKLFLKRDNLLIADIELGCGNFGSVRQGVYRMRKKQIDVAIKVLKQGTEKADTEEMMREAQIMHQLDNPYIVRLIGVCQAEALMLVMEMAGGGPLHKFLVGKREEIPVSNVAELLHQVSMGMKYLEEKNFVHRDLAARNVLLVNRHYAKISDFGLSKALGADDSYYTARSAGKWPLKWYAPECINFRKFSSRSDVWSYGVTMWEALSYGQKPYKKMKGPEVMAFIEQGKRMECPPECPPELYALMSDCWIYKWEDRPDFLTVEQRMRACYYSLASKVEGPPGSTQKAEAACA", "test": "biochemical", "conditions": "ZAP70 kinase (h); 10 μM; read-out: % Inhibition of Control Values"}, "[3]": {"target": "enzymes (Bioprint panel) (Homo sapiens, UniProt Q9UQM7)", "test": "biochemical", "conditions": "CaMK2alpha (h); 10 μM; read-out: % Inhibition of Control Values"}, "[4]": {"target": "enzymes (Bioprint panel) (Homo sapiens, UniProt P08253)", "test": "biochemical", "conditions": "MMP-2 (h); 10 μM; read-out: % Inhibition of Control Values"}, "[5]": {"target": "enzymes (Bioprint panel) (Homo sapiens, UniProt P17948)", "test": "biochemical", "conditions": "FLT-1 kinase (h) (VEGFR1); 10 μM; read-out: % Inhibition of Control Values"}, "[6]": {"target": "T1, enzymes (Bioprint panel) (Homo sapiens, UniProt O00408)", "T1 construct": "other: PDE2A1 (h); 10 μM; PDE2A1 (h)", "T1 sequence (O00408 other isoform, or with tags, fused parts or gaps)": "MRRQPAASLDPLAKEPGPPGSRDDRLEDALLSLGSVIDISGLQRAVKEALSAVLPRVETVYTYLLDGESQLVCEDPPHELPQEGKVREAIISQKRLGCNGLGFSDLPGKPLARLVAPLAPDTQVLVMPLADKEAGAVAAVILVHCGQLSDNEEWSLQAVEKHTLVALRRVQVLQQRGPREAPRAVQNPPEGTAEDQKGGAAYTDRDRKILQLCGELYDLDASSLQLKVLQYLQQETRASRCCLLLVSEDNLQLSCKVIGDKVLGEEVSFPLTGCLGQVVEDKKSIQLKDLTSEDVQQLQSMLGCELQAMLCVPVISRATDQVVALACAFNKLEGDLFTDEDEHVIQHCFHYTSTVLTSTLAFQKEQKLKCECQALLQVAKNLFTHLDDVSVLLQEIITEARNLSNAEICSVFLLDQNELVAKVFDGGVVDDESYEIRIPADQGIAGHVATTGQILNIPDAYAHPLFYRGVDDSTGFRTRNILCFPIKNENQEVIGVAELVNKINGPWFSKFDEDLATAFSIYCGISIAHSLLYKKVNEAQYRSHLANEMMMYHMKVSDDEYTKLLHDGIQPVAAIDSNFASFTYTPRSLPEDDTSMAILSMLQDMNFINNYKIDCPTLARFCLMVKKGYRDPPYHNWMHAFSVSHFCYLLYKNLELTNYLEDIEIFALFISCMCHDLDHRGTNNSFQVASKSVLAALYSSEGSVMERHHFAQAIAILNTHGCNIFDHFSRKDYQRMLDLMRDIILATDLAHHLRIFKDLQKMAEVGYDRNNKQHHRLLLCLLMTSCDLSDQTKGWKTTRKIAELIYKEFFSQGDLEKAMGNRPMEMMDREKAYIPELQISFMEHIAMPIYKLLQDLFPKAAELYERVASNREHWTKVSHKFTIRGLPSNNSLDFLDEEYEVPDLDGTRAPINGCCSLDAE", "test": "biochemical", "conditions": "PDE2A1 (h); 10 μM; read-out: % Inhibition of Control Values"}, "[7]": {"target": "enzymes (Bioprint panel) (Homo sapiens, UniProt P24941)", "test": "biochemical", "conditions": "CDK2 (h) (cycA); 10 μM; read-out: % Inhibition of Control Values"}, "[8]": {"target": "T2, enzymes (Bioprint panel) (Homo sapiens, UniProt Q08499)", "T2 construct": "other: PDE4D2 (h); 10 μM; PDE4D2 (h)", "T2 sequence (Q08499 303-809)": "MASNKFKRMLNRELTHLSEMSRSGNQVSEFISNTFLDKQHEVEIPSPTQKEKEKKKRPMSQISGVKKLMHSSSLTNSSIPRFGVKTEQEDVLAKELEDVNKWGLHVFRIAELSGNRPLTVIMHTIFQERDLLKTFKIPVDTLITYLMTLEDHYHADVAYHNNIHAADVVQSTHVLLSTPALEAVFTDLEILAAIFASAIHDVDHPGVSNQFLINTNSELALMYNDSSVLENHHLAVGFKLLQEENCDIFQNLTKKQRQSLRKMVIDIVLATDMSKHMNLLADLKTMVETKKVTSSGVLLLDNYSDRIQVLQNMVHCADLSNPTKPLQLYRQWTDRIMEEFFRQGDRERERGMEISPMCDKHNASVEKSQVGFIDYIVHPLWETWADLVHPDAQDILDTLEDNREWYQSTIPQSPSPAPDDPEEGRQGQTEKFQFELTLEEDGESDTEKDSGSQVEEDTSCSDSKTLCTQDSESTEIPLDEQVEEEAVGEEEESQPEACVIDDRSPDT", "test": "biochemical", "conditions": "PDE4D2 (h); 10 μM; read-out: % Inhibition of Control Values"}, "[9]": {"test_system": "T3, enzymes (Bioprint panel)", "T3 construct": "other: ATPase (Na+/K+); 10 μM", "test": "biochemical", "conditions": "ATPase (Na+/K+); 10 μM"}, "[10]": {"target": "enzymes (Bioprint panel) (Homo sapiens, UniProt P42574)", "sequence (P42574 29-277)": "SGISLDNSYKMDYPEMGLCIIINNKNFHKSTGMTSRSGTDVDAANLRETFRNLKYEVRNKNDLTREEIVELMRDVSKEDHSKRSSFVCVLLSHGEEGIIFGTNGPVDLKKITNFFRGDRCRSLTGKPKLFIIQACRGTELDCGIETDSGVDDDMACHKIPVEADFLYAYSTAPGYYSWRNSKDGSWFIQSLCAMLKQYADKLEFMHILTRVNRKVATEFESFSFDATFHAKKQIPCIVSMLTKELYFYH", "test": "biochemical", "conditions": "caspase-3 (h); 10 μM; read-out: % Inhibition of Control Values"}, "[11]": {"target": "enzymes (Bioprint panel) (Homo sapiens, UniProt P12821)", "test": "biochemical", "conditions": "ACE (h); 10 μM; read-out: % Inhibition of Control Values"}, "[12]": {"target": "T4, enzymes (Bioprint panel) (Bos taurus, UniProt P11541+P23439)", "T4 construct": "other: PDE6 (non-selective); 10 μM", "test": "biochemical", "conditions": "PDE6 (non-selective); 10 μM; read-out: % Inhibition of Control Values"}, "[13]": {"target": "enzymes (Bioprint panel) (Homo sapiens, UniProt P56817)", "sequence (P56817 46-501)": "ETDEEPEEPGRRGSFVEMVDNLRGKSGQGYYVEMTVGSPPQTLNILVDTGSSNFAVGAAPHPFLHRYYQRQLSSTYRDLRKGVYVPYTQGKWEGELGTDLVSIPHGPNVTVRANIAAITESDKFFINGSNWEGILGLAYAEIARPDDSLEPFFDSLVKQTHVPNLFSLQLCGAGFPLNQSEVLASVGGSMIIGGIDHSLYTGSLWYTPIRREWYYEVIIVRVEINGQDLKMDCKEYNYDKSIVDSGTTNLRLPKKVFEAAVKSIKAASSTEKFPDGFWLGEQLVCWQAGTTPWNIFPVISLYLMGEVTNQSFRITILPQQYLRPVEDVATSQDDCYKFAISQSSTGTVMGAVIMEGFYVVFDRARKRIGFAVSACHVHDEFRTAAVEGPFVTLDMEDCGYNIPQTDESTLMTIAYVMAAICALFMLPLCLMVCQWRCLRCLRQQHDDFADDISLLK", "test": "biochemical", "conditions": "BACE-1 (h) (beta -secretase); 10 μM; read-out: % Inhibition of Control Values"}, "[14]": {"target": "enzymes (Bioprint panel) (Homo sapiens, UniProt P00519)", "sequence (P00519 whole entry)": "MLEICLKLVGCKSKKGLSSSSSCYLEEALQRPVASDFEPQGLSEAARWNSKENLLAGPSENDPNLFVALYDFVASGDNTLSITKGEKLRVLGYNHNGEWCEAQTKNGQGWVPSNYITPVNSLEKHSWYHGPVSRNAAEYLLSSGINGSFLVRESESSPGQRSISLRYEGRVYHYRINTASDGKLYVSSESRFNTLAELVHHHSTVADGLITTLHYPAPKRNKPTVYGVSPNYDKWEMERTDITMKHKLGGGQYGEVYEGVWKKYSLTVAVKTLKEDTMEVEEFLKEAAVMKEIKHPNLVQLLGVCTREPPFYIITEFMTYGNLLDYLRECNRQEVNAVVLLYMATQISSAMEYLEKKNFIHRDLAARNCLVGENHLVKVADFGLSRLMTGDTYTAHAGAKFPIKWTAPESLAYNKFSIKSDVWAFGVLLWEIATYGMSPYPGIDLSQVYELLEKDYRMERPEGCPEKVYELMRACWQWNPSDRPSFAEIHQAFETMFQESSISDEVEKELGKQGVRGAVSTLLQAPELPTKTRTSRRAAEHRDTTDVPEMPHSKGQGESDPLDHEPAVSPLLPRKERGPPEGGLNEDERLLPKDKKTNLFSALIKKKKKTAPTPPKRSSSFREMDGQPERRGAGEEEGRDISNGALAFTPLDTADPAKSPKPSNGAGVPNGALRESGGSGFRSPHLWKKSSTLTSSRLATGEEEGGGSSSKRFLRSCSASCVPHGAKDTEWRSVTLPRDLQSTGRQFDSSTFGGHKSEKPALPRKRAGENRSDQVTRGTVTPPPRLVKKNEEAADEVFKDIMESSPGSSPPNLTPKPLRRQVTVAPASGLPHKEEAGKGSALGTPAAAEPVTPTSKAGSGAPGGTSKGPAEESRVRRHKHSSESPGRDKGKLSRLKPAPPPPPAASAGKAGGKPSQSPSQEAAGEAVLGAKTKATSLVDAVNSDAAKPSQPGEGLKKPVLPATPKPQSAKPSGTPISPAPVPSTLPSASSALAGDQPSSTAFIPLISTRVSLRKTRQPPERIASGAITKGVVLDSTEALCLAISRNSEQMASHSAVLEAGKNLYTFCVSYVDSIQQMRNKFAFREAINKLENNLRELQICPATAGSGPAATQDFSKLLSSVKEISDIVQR", "test": "biochemical", "conditions": "Abl kinase (h); 10 μM; read-out: % Inhibition of Control Values"}, "[15]": {"target": "enzymes (Bioprint panel) (Bos taurus, UniProt P80457)", "test": "biochemical", "conditions": "xanthine oxidase/superoxide O2- scavenging; 10 μM; read-out: % Inhibition of Control Values"}, "[16]": {"target": "enzymes (Bioprint panel) (Homo sapiens, UniProt Q16539)", "sequence (Q16539 whole entry)": "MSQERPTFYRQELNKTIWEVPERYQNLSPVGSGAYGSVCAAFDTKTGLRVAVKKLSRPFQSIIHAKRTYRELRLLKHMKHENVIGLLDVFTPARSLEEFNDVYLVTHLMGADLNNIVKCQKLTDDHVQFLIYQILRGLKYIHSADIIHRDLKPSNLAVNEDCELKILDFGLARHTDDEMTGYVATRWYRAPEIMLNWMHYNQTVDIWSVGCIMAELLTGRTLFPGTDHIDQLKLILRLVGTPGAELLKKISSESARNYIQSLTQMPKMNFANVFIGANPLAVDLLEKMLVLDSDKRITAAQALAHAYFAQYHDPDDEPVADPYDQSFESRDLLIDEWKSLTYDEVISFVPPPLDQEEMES", "test": "biochemical", "conditions": "p38alpha kinase (h); 10 μM; read-out: % Inhibition of Control Values"}, "[17]": {"target": "enzymes (Bioprint panel) (Homo sapiens, UniProt P03956)", "sequence (P03956 100-469)": "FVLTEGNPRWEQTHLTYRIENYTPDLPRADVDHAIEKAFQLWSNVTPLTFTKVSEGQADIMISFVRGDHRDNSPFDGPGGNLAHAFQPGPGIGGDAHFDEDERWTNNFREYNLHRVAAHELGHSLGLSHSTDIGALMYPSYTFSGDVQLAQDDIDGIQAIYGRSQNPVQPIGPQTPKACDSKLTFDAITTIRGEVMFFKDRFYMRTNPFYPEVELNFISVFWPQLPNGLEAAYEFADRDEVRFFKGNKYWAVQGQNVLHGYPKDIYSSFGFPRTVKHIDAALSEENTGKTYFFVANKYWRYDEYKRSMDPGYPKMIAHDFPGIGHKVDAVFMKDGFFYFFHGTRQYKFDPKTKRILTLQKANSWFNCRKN", "test": "biochemical", "conditions": "MMP-1 (h); 10 μM; read-out: % Inhibition of Control Values"}, "[18]": {"target": "enzymes (Bioprint panel) (Homo sapiens, UniProt P06241)", "test": "biochemical", "conditions": "Fyn kinase (h); 10 μM; read-out: % Inhibition of Control Values"}, "[19]": {"target": "T5, enzymes (Bioprint panel) (UniProt P04585)", "T5 construct": "other: HIV-1 protease; 10 μM", "test": "biochemical", "conditions": "HIV-1 protease; 10 μM"}, "[20]": {"target": "enzymes (Bioprint panel) (Mus musculus, UniProt P29477)", "test": "biochemical", "conditions": "inducible NOS; 10 μM; read-out: % Inhibition of Control Values"}, "[21]": {"target": "Lipid Peroxidase", "test": "Lipid Peroxidase", "assay_type": "biochemical, Dunkin Hartley Guinea pig", "conditions": "concentration-response 10 to 0.01 μM"}, "[22]": {"test_system": "human PBMC", "test": "PBMC cell viability (assay number 1322)", "assay_type": "cell-based", "conditions": "Homo sapiens, PBMC; read-out: Inhibition of cell viability, Rel EC50"}, "[23]": {"test": "PBMC cell viability (assay number 1322)", "assay_type": "cell-based, human", "conditions": "human; read-out: Inhibition of cell viability, Max Effect"}, "[24]": {"target": "T6, SETD7 (h) (Homo sapiens, UniProt Q8WTS6)", "T6 sequence (Q8WTS6 1-366)": "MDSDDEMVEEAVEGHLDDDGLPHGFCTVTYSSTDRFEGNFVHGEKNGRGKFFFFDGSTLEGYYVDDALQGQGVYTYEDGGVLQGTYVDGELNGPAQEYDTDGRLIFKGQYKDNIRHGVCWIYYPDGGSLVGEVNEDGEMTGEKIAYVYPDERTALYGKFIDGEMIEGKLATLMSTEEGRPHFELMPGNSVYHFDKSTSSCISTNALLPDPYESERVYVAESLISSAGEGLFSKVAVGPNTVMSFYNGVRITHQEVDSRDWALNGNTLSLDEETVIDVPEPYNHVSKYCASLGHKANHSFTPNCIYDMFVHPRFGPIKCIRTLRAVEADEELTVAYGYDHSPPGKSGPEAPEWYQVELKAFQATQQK", "conditions": "read-out: Reference: (IC50 not given); cited from earlier work"}, "[25]": {"target": "DNMT3B/DNMT3L (h) (Homo sapiens, UniProt Q9UBC3)", "conditions": "read-out: Reference IC50; cited from earlier work"}}, "data": [{"compound": "CC(C)=CCC[C@H](CO)[C@@H]1CC[C@@H](C)c2c1cc(C)c(O)c2O", "note": "[Compound 1, 7,8,18-trihydroxyserrulat-14-ene]", "values": [{"measurement": "inhibition at 10 µM", "setting": "[1]", "value": 11, "unit": "%"}, {"measurement": "inhibition at 10 µM", "setting": "[2]", "value": 33, "unit": "%"}, {"measurement": "inhibition at 10 µM", "setting": "[3]", "value": 2, "unit": "%"}, {"measurement": "inhibition at 10 µM", "setting": "[4]", "value": 0, "unit": "%"}, {"measurement": "inhibition at 10 µM", "setting": "[5]", "value": 36, "unit": "%"}, {"measurement": "inhibition at 10 µM", "setting": "[6]", "value": 43, "unit": "%"}, {"measurement": "inhibition at 10 µM", "setting": "[7]", "value": 12, "unit": "%"}, {"measurement": "inhibition at 10 µM", "setting": "[8]", "value": 55, "unit": "%"}, {"measurement": "% Inhibition of Control Values", "setting": "[9]", "value": 22, "unit": "%"}, {"measurement": "inhibition at 10 µM", "setting": "[10]", "value": -3, "unit": "%"}, {"measurement": "inhibition at 10 µM", "setting": "[11]", "value": 14, "unit": "%"}, {"measurement": "inhibition at 10 µM", "setting": "[12]", "value": 4, "unit": "%"}, {"measurement": "inhibition at 10 µM", "setting": "[13]", "value": 0, "unit": "%"}, {"measurement": "inhibition at 10 µM", "setting": "[14]", "value": 14, "unit": "%"}, {"measurement": "inhibition at 10 µM", "setting": "[15]", "value": -140, "unit": "%"}, {"measurement": "inhibition at 10 µM", "setting": "[16]", "value": 4, "unit": "%"}, {"measurement": "inhibition at 10 µM", "setting": "[17]", "value": -2, "unit": "%"}, {"measurement": "inhibition at 10 µM", "setting": "[18]", "value": 6, "unit": "%"}, {"measurement": "% Inhibition of Control Values", "setting": "[19]", "value": 9, "unit": "%"}, {"measurement": "inhibition at 10 µM", "setting": "[20]", "value": -1, "unit": "%"}, {"measurement": "IC50", "setting": "[21]", "value": 1470, "unit": "nM"}, {"measurement": "EC50", "setting": "[22]", "value": 542, "unit": "nM"}, {"measurement": "cytotoxicity at 3 days", "setting": "[23]", "value": 101, "unit": "%"}]}, {"compound": "Nc1ncnc2c1ncn2[C@@H]1O[C@H](CSCC[C@H](N)C(=O)O)[C@@H](O)[C@H]1O", "note": "[SAH]", "values": [{"measurement": "IC50", "setting": "[24]", "value": 24000, "unit": "nM"}, {"measurement": "IC50", "setting": "[25]", "value": 45, "unit": "nM"}]}]}
